Test results reported in publication PMC10484210 (Biochemistry, 2023).

Tests used:
BcPurE = BcPurE (Burkholderia cenocepacia, UniProt B4EA21); test: biochemical; format: biochemical; conditions: for inhibition of PurE activity in initial screen: two concentrations, 10 and 100 μM, against BcPurE
human PAICS = human PAICS (Homo sapiens, UniProt P22234); format: biochemical; conditions: two concentrations, 10 and 100 μM
Sequence of human PAICS (P22234 whole entry): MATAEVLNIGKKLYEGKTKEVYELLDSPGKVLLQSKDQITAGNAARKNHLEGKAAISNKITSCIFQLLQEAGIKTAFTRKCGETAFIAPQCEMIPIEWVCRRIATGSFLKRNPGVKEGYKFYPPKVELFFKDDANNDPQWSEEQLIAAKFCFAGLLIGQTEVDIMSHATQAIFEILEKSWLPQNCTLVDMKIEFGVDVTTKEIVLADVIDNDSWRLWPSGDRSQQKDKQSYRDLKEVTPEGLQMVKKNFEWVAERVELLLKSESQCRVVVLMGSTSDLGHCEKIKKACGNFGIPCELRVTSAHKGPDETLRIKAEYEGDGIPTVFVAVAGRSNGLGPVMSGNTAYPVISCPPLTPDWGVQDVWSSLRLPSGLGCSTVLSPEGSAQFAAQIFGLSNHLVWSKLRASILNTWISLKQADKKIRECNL

Sequence of BcPurE (B4EA21 1-173): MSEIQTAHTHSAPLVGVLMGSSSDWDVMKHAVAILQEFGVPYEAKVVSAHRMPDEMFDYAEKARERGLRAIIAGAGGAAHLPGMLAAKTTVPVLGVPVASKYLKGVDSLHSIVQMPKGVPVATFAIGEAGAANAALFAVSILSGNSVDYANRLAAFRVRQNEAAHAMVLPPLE

Structure (SMILES)	inhibition of PurE activity in initial screen (BcPurE)	inhibition of human PAICS decarboxylation activity (human PAICS)	IC50 (BcPurE) [µM]
COc1ccc(CN=c2[nH]c(N3CCC[C@H]3CO)ncc2C(=O)NCc2ncccn2)cc1Cl [Avanafil]	some degree of inhibition	little or no inhibition	–
CN(C)C/C=C/C(=O)Nc1cc2c(Nc3ccc(F)c(Cl)c3)ncnc2cc1O[C@H]1CCOC1 [Afatinib]	some degree of inhibition	do inhibit	–
CC(=O)N1CCN(c2ccc(OCC3COC(Cn4ccnc4)(c4ccc(Cl)cc4Cl)O3)cc2)CC1 (centres unmarked) [Ketoconazole]	some degree of inhibition	little or no inhibition	–
CCc1cc2c(cc1CC)CC(NC[C@H](O)c1ccc(O)c3[nH]c(=O)ccc13)C2 [Indacaterol]	some degree of inhibition	do inhibit	–
COc1cc2nc(N(C)CCCNC(=O)C3CCCO3)nc(N)c2cc1OC (centres unmarked) [Alfuzosin]	some degree of inhibition	little or no inhibition	47
